Read-outs that look alike come from different tables or passages of the source. Where a SMILES comes first, the peptide text is derived from it. The star is where a group is joined. Myristoyl = CCCCCCCCCCCCCC(=O)*
Experiments:
[1] = tested on: RSV infection of NHBE cells; experiment: RSV infection of NHBE cells treated with signaling inhibitors, FITC anti-RSV mab staining and cell counting; format: cell-based, respiratory syncytial virus (RSV); settings: inhibitor 2 h before and 48 h after RSV, AG 490 50 μM, PD98059 80 μM, RO318220 3 μM, Wortmannin 300 nM
Method: NHBE cells were treated with different inhibitors for 2 hours at concentration as: AG 490 (50 μM), PD98059 (80 μM), RO318220 (3 μM), and Wortmannin (300 nM). DMSO was used as a mock control. The inhibitors were removed and the cells were infected with RSV for 2 hours. After the RSV was removed, the growth medium with the same concentration of inhibitors was added to the cells for 48 hours. The cells were rinsed with PBS prior to staining with FITC-labeled Anti-RSV monoclonal antibody (mab) (CHEMICON, Temecula, Calif.). The total cells and RSV positive cells were counted randomly from 15 to 20 different spots.
To determine if different signaling molecules related to the ERK pathway are required for a successful RSV infection, primary NHBE cells were exposed to various inhibitors previously to being infected with a sucrose-purified RSV preparation. […] Also, other PKC isoforms are activated later during the infection, which could potentially play a role in the late phase of ERK activation (Monick, M. et al., J Immunol, 166(4):2681-2687, 2001).

[2] = tested on: RSV infection of NHBE cells; experiment: RSV infection of NHBE cells pre-treated with PKC inhibitors, single cell immunofluorescence assay; format: cell-based, respiratory syncytial virus (RSV); settings: for number of infected cells, dose dependence: inhibitor 30 min before infection; for IC50: 16 h, read-out: concentration at which 50% inhibition of infected cells was reached

| Molecule | number of RSV infected cells [1] | number of infected cells, dose dependence ([2]; NHBE cells, RSV 1 MOI) | other results |
| --- | --- | --- | --- |
| N#C/C(=C/c1ccc(O)c(O)c1)C(=O)NCc1ccccc1 [AG490] | significant reduction |  | number of RSV infected cells ([1]; listed as AG 490): substantially decrease |
| COc1ccc2c(c[n+](C)c3c4cc5c(cc4ccc23)OCO5)c1OC [Chelerythrine] |  | reduced in a dose-dependent manner | IC50 ([2]; human respiratory syncytial virus, NHBE): 7.5 µM |
| CCCCCCCCCCCCCC(=O)N[C@@H](Cc1ccccc1)C(=O)N[C@@H](C)C(=O)N[C@@H](CCCNC(=N)N)C(=O)N[C@@H](CCCCN)C(=O)NCC(=O)N[C@@H](C)C(=O)N[C@@H](CC(C)C)C(=O)N[C@@H](CCCNC(=N)N)C(=O)N[C@@H](CCC(N)=O)C(N)=O [N-Myr-Phe-Ala-Arg-Lys-Gly-Ala-Leu-Arg-Gln] (Myristoyl-FARKGALRQ-NH2; N-terminus and C-terminus assumed) |  |  | solubility in water: soluble in water |
| COc1cccc(-c2cc(=O)c3ccccc3o2)c1N [PD98059] | significant reduction |  |  |
| Cn1cc(C2=C(c3cn(CCCSC(=N)N)c4ccccc34)C(=O)NC2=O)c2ccccc21 [Ro318220] | significant reduction |  | number of RSV infected cells ([1]; listed as RO318220): substantially decrease |
| Calphostin C |  | reduced in a dose-dependent manner | IC50 ([2]; NHBE cells, RSV 1 MOI): 0.375 µM |

Reference: patent US20140213604A1, “PROTEIN KINASE C AS A TARGET FOR THE TREATMENT OF RESPIRATORY SYNCYTIAL VIRUS” (priority 2002, published 2014)
